According to PMC3898461 (Biochemistry, 2013):

Molecular target: MurQ-EC (MurNAc 6P hydrolase from Escherichia coli) (Escherichia coli, UniProt P76535)
Assay: coupled spectrophotometric assay of D-lactate release
Assay type: biochemical

Chain of MurQ-EC (MurNAc 6P hydrolase from Escherichia coli) (P76535 whole entry): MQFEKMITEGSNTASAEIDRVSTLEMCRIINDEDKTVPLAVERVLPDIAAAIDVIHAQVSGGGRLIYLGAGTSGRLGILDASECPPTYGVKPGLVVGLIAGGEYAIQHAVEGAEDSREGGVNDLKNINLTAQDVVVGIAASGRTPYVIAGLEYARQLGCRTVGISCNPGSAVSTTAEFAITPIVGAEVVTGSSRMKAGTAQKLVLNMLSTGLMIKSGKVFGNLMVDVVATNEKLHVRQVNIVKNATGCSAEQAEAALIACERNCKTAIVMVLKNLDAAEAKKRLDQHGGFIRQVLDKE

Ki	SMILES
230 ± 20 µM	CC(=O)N[C@@H](CO)[C@@H](O[C@H](C)C(=O)O)[C@H](O)[C@H](O)COP(=O)(O)O [compound 2]
1100 ± 300 µM	CC(=O)N[C@@H](CO)[C@@H](O)[C@H](O)[C@H](O)COP(=O)(O)O [compound 1]
